The conditions of series [1]: Liquid; for mass density: 298.15 K, 101.33 kPa, Pycnometric method.
Series [2] in a line: refractive index (Na D-line) (dimensionless). Conditions: 298.15 K; 101.33 kPa; Liquid; Standard Abbe refractometry.

Numbers after ± are expanded uncertainties.

Regarding `CC(C)CO` [2-methyl-1-propanol], the mass density in series [1] turned out to be 797.8 ± 4.7 kg/m3. Besides, the “vapor or sublimation pressure” value in series [1] (379.65 K) turned out to be 95.5 ± 5 kPa. Besides, the refractive index in series [2] worked out at 1.3939 ± 0.0012.

`CC(C)(C)O` [2-methylpropan-2-ol]: in series [1], the mass density is recorded as 781.2 ± 4.5 kg/m3. In addition, the “vapor or sublimation pressure” value in series [1] (354.15 K) turned out to be 95.5 ± 5 kPa. The refractive index in series [2] is given as 1.3852 ± 0.0012.

As for `Cc1cccc(O)c1` [3-methylphenol], the mass density in series [1] amounted to 1030 ± 7.7 kg/m3. In series [1] (473.75 K), the “vapor or sublimation pressure” value is recorded as 95.5 ± 5 kPa. The refractive index in series [2] is 1.5395 ± 0.0012.

Regarding `CCCCO` [butan-1-ol], in series [1], the mass density was found to be 805.8 ± 4.8 kg/m3. Besides, in series [1] (389.35 K), the “vapor or sublimation pressure” value stood at 95.5 ± 5 kPa. In series [2], the refractive index turned out to be 1.3974 ± 0.0012.

Consider `CCC(C)O` (configuration not stated) [butan-2-ol], for which the mass density in series [1] is 802.4 ± 4.7 kg/m3. In addition, the “vapor or sublimation pressure” value in series [1] (371.26 K) is reported as 95.5 ± 5 kPa. Besides, the refractive index in series [2] is listed as 1.3953 ± 0.0012.

Regarding `CCO` [ethanol], the mass density in series [1] is 784.9 ± 4.5 kg/m3. The “vapor or sublimation pressure” value in series [1] (349.95 K) turned out to be 95.5 ± 5 kPa. Besides, in series [2], the refractive index is reported as 1.3594 ± 0.0012.

Consider `CO` [methanol], for which the mass density in series [1] is recorded as 786.4 ± 4.6 kg/m3. Also, the “vapor or sublimation pressure” value in series [1] (336.25 K) was 95.5 ± 5 kPa. In addition, the refractive index in series [2] came out at 1.3265 ± 0.0012.

Consider `CCCO` [propan-1-ol], for which the mass density in series [1] came out at 799.6 ± 4.7 kg/m3. Also, in series [1] (368.85 K), the “vapor or sublimation pressure” value turned out to be 95.5 ± 5 kPa. Also, the refractive index in series [2] is 1.3837 ± 0.0012.

As to `CC(C)O` [propan-2-ol], the mass density in series [1] came out at 781.3 ± 4.5 kg/m3. In series [1] (355.05 K), the “vapor or sublimation pressure” value turned out to be 95.5 ± 5 kPa. Besides, the refractive index in series [2] came out at 1.3752 ± 0.0012.

For the origin of these results see the NIST ThermoML archive (doi:10.1016/j.jct.2006.03.006).
